Source: US5484778A, “Phthalocyanine photosensitizers for photodynamic therapy and methods for their use” (priority 1993, dated 1996)
“Also recorded” adds a separate entry of the source.

How the values were obtained:
[1] = tested on: Chinese hamster V79-379 cells; experiment: Clonogenic cell survival / photocytotoxicity in V79 cells (Table 1, FIG. 1, FIG. 2); type: cell-based
Method: FIG. 1 is a graph illustrating the photodynamic efficacy of the various compositions of the present invention in comparison to AlPcCl. The phthalocyanine composition compounds of the present invention were tested for their photodynamic efficiency against Chinese hamster fibroblast V79 cells by colony formation. Monolayer cultures were treated with the indicated phthalocyanine composition for 18 hours, irradiated with various fluences of red light, and immediately trypsinized and replated at appropriate aliquots in triplicate. Colonies of at least 50 cells were counted after 7-10 days. The plating efficiency of the untreated cells was approximately 90%.
In this regard, in FIG. 2 the data of FIG. 1 were replotted as a function of the product of the amount of cell-associated phthalocyanine and the light fluence.
(§1) Chinese hamster V79-379 lung fibroblasts were grown in monolayer culture in McCoy's 5A medium (Gibco Laboratories, Grand Island, N.Y.) augmented with 10% calf serum and buffered with 20 mM HEPES (pH 7.4).
(§2) The cells were treated with 1 μM AlPcCl (from Eastman Kodak, Rochester, N.Y.) or with phthalocyanine compositions I-VI (0.5-1.0 μM final concentration in the medium) for 18 hours by adding the appropriate volume of a 1.0 mM stock solution in dimethylformamide (DMF) to the culture medium. The growth medium was replaced with 4 ml Hank's balanced salt solution (HBSS), and the cells were irradiated. The light source was a 500 W tungsten-halogen lamp located approximately 29 inches below the surface of a glass exposure tray. The visible light administered to the cells was filtered to allow passage of only that portion of the visible spectrum above 600 nm (Lee Primary red filter No. 106, Vincent Lighting, Cleveland, Ohio). The fluence rate was approximately 0.074 kJ/m^2 /s at the level of the cell monolayer.
Cells were irradiated at a density of approximately 2×10^6 per 25 cm^2 flask. Immediately after irradiation, the cell monolayer was treated with trypsin, and appropriate aliquots were plated in triplicate to give 100 to 200 colonies in each 10-cm Petri dish. Cell survival was determined by the ability of the cells to form colonies containing at least 50 cells. The response of cells treated with 1 μM AlPcCl and light was compared in each experiment.
Photocytotoxicity of the phthalocyanines compounds I to VI was also assessed by clonogenic assay (Table 1, FIG. 1). In all experiments, 1 μM AlPcCl was included for comparison purposes. From the survival curves (FIG. 1), the fluence reducing the cell survival to 10% (F10) was obtained. The ratio of the F10 for AlPcCl and the F10 for the test compound is recorded in Table 1.
In order to take differences in cellular uptake into consideration in the assessment of the relative efficiency of these phthalocyanines as photosensitizers of V79 cells, the survival data were replotted against the product of intracellular phthalocyanine concentration and light fluence (FIG. 2). From these curves, the product of intracellular concentration and light fluence reducing survival to 10% (CF10) was obtained, and comparisons of the values for AlPcCl and the test compounds are recorded in Table 1.

[2] = tested on: Chinese hamster V79-379 cells; experiment: Growth delay of V79 cultures after red light (Table 1); type: cell-based
Method: as §1, §2
At the time of light exposure, there were approximately 1.5×10^5 cells per 25 cm^2 flask. Following irradiation, the HBSS was replaced by 10 ml of fresh complete growth medium, and the cultures were returned to the 37° C. incubator. At various times before and after irradiation, duplicate cultures were trypsinized and counted. Controls included untreated cells and cells treated with light alone or drug alone. In addition, in each experiment, the drug to be tested was compared to a standard treatment, i.e. 1 μM AlPcCl for 18 hours followed by 12 kJ/m^2 light.
The inhibition of V79 culture growth was measured during a three day period following red light irradiation (12 kJ/m^2) of phthalocyanine-pretreated cells. With each of the active compounds, as well as with AlPcCl, there was an initial decrease in cell density, as dead cells became detached from the monolayer. Thereafter, the cell number per flask increased, as living cells grew and divided. The time for the cell density to recover to the level at the time of light exposure was considered the growth delay. […] The ratio of the growth delay for the test photosensitizer and the growth delay for AlPcCl measured in the same experiment is recorded in Table 1.

[3] = tested on: V79 cells; experiment: Clonogenicity, killing of V79 cells using photodynamic therapy (Table 3); type: cell-based, Chinese hamster
Method: Using the cell culture methods described above, V79 cells Chinese hamster lung fibroblasts were treated with either 0.5 or 1.0 μM of the phthalocyanines listed in Table 3. About 18 hours thereafter, the cells were irradiated with increasing doses of 675 nm broad band red light from a 500 W tungsten-halogen lamp fitted with a 600 nm high pass filter, to determine the light dosage that would kill 90% of the phthalocyanine treated cells. Where 90% of the cells were not killed, the maximum percent of cells killed were determined, (expressed as % survival) and the related light dosage recorded.

[4] = tested on: RIF-1 tumors; experiment: PDT of RIF-1 implanted tumors (Table 7); type: in vivo, C3H/HeN mice; settings: for effect on tumor volume / growth (in words): 1 mg/kg; for Doubling Time of Initial Tumor Volume after PDT: 1 mg/kg in corn oil, 675 nm, 135 J/cm^2
Method: The relative effectiveness at reducing tumor volume of selected phthalocyanine compounds at a given dosage was compared in vivo. RIF-1, i.e., radiation-induced fibrosarcoma, tumors were implanted into the backs of C3H/HeN mice. One tumor was implanted per mouse. Each of the phthalocyanine compounds listed in Table 7 was sonicated and vortexed in corn oil to produce a suspension. When the tumors reached […] in diameter and 2-3 mm in thickness, each mouse received 1 mg/kg in 0.1 ml of the corn oil, of the phthalocyanine suspension. For comparison, select mice received a conventional photosensitizer; either 5 mg/kg of chloroaluminum phthalocyanine tetrasulfonate, herein also referred to as "AlPcTS" in phosphate buffered saline or 5 mg/kg of Photofrin®-II in 5% dextrose. Twenty-four hours after the photosensitizers were administered, the tumors were irradiated with visible radiation delivered by an argon-pumped dye laser. The mice that received a phthalocyanine photosensitizer received light having a wavelength of 675 nm and the mice that received the Photofrin® II photosensitizer received light having a wavelength of 630 nm. Each tumor received 135 J/cm^2 of radiation. Tumor size was measured every day using calipers. The initial tumor volume was 50±10 mm^3. Tumor volume was calculated according to the hemiellipsoid model by the formula: [formula] Where l is length Where W is width

[5] = tested on: L5178Y cells; experiment: Induction of apoptosis (DNA fragmentation) in L5178Y-R cells (Table 6); type: cell-based, mouse
Method: (§3) Mouse lymphoma L5178y-R (hereinafter also referred to as "LY-R") cells were grown in suspension culture as described in Ramakrishnan N., Oleinick, N. L. Clay, M. E., Horng, M. F., Antunez, A. R., and Evans H. H., DNA lesions and DNA degradation in mouse lymphoma L5178Y cells after photodynamic treatment sensitized by chloroaluminum phthalocyanine. Photochem. Photobiol. 50, 373-378, 1989 and Agarwal, M. L., Clay, M. E., Harvey, E. J., Evans, H. H., Antunez, A. R., and Oleinick, N. L. Photodynamic therapy induces rapid cell death by apoptosis in L5178Y mouse lymphoma cells. Cancer Res., 51, 5993-5996, 1991.
(§4) The cells were used while in exponential growth. Stock solutions of either 0.5 or 1 mM of PcIV, PcXII, PcX, PcXVIII were prepared in dimethylformamide unless otherwise indicated and added to the 10 mL medium at a rate of 1 μL per mL. After allowing 18 hours for uptake of the phthalocyanine into the cells, the flasks containing the cultures were placed on a glass exposure tray above a 500-W tungsten-halogen lamp. The exposure tray was fitted with a 600-nm high-pass filter. Flasks were exposed to various fluences of red light (up to 30 kJ/m^2) at a fluence rate of approximately 74 W/m^2). After irradiation, the cells were collected by centrifugation.
(§5) For measurement of clonogenic cell survival, aliquots were plated in medium containing soft agar as described in Ramakrishnan N., Oleinick, N. L. Clay, M. E., Horng, M. F., Antunez, A. R., and Evans H. H., DNA lesions and DNA degradation in mouse lymphoma L5178Y cells after photodynamic treatment sensitized by chloroaluminum phthalocyanine. Photochem. Photobiol. 50, 373-378, 1989. The aliquots were plated in sufficient numbers to produce 50-200 colonies. The dishes were kept in an incubator at 37° C. in an atmosphere of 5% CO2 and 95% air for 10-14 days to allow viable cells to form colonies. Colonies were counted by eye. Controls treated with the phthalocyanine alone had plating efficiencies of ~90%. The plating efficiencies of the treated cells are normalized to the plating efficiencies of control cells in each experiment. For measurement of the induction of apoptosis, DNA was isolated from the treated and control cells 2 hours after photodynamic therapy, subjected to electrophoresis on 1.5% agarose, stained with ethidium bromide, and visualized by UV transillumination, as described in Agarwal et. al. The results are shown in Tables 4, 5 and 6 and in FIG. 3.
Cells were treated with various concentrations of the compounds listed in the table and various light fluences. DNA gels were prepared and examined for the characteristic "ladder" pattern of DNA fragments. For each Pc, the minimum total PDT dose tested (calculated as the product of the minimum phthalocyanine concentration and the minimum fluence) which produced visible DNA fragments is recorded. […] PcXVIII was also added at 0.5 and 1.0 μM.

[6] = tested on: V79 cells
Method: V79 cells Chinese hamster lung fibroblasts were cultured using the cell culture methods described above. […] When the filters were dry, the phthalocyanines were extracted into ethanol and the absorption determined at the peak wavelength, usually 668 nm.

[7] = tested on: L5178Y-R (LY-R) cells; experiment: Clonogenic survival of PDT-treated L5178Y-R cells (Tables 4 and 5, FIG. 3); type: cell-based, mouse; settings: 0.5 μM
Method: as §3, §4, §5
In Table 4 each phthalocyanine was present at 0.5 μM, and the normalized plating efficiencies are presented as mean and standard deviation at each fluence tested. […] This relative activity of these four phthalocyanines is the same as obtained from screening in V79 cells.
PcXII when present in the culture medium at 0.5 μM requires less light, that is the lowest fluence, to kill either 50% […] of the cells. PcIV is about 80% as active as PcXII, PcX is 44% as active as PcXII and PcXVIII is 22% as active as PcXII.

C[N+](C)(C)CCC[Si](C)(C)[O][Al-2]123[n]4c5c6ccccc6c4N=c4c6ccccc6c([n]41)=NC1=[N+]2C(=NC2=[N+]3C(=N5)c3ccccc32)c2ccccc21.I [Compound II, AlPcOSi(CH3)2 (CH2)3 N(CH3)3^+ I^-]
photosensitizing efficiency / photocytotoxicity (in words) [1]: nearly as efficient photosensitizers as AlPcCl
CF10 (AlPcCl)/CF10 (Pc) ([1]; 1.0 μM, 18 h, CF10 = intracellular concentration x fluence reducing survival to 10%): 0.72
F10 (AlPcCl)/F10 (Pc) ([1]; 1.0 μM, 18 h, F10 = fluence reducing survival to 10%): 0.99
Growth Delay, efficiency relative to 1 μM AlPcCl ([2]; 1.0 μM, 18 h, 12 kJ/m^2 red light): 3.4
inhibition of V79 culture growth (in words) ([2]; red light 12 kJ/m^2, three day period): substantial inhibition

C[Si](C)(CCCCNS(C)(=O)=O)O[Si]1(O)n2c3c4ccccc4c2N=C2N=C(N=c4c5ccccc5c(n41)=NC1=NC(=N3)c3ccccc31)c1ccccc12 (stereo not drawn) [Compound IX, HOSiPCOSi(CH3)2 (CH2)4 NHSO2 CH3]
Maximum Effect (% survival) ([3]; 0.5 μM, at 9 kJ/m^2): 44%
effect on tumor volume / growth (in words) [4]: particularly effective in reducing tumor volume
Doubling Time of Initial Tumor Volume after PDT [4]: 11 days
Minimum Demonstrated Condition to induce apoptosis: C × F ([5]; 0.3 μM): 3.6 μm × kJ/m^2
Minimum Demonstrated Condition to induce apoptosis: Fluence ([5]; 0.3 μM): 12.0 kJ/m^2
Minimum Demonstrated Condition to induce apoptosis: C × F ([5]; 0.5 μM): 4.0 μm × kJ/m^2
Minimum Demonstrated Condition to induce apoptosis: Fluence ([5]; 0.5 μM): 8.0 kJ/m^2
Minimum Demonstrated Condition to induce apoptosis: C × F ([5]; 1.0 μM): 12.0 μm × kJ/m^2
Minimum Demonstrated Condition to induce apoptosis: Fluence ([5]; 1.0 μM): 12.0 kJ/m^2
apoptosis (in words) ([5]; various concentrations and fluences): activity increases and then decreases as the concentration is raised
Uptake (from Table 2) [6]: 0.3 n Moles/10^6 cells/μM
Uptake into V79 cells, composite value [6]: 0.3 n Moles/10^6 cells/μM

CN(C)CCC[Si](C)(C)O[Si]1(O[Si](C)(C)CCCN(C)C)n2c3c4ccccc4c2N=C2N=C(N=c4c5ccccc5c(n41)=NC1=NC(=N3)c3ccccc31)c1ccccc12 [Compound XII, SiPc[OSi(CH3)2 (CH2)3 N(CH3)2]2]
LD 90 ([7]; fluence reducing survival to 10%): 1.70 kJ/m^2
LD50 ([7]; fluence reducing survival to 50%): 1.11 kJ/m^2
photosensitizer activity in LY-R cells (in words) ([7]; listed as PcXII): active photosensitizers; also recorded: most active compound of the phthalocyanines shown in Table 5
LD 90 ([3]; 0.5 μM, 18 h, light dose killing 90% of cells): 3.3 kJ/m^2
photosensitizing activity, killing V79 cells (in words) ([3]; discussion of Table 3): most active at killing V79 cells
Doubling Time of Initial Tumor Volume after PDT [4]: 20 days
effect on tumor volume / growth (in words) ([4]; listed as Pc XII): significantly impair the growth of the tumors
effect on tumor volume / growth (in words) ([4]; listed as PcXII): particularly effective in reducing tumor volume
Minimum Demonstrated Condition to induce apoptosis: C × F ([5]; 0.4 μM): 1.2 μm × kJ/m^2
Minimum Demonstrated Condition to induce apoptosis: Fluence ([5]; 0.4 μM): 3.0 kJ/m^2
Uptake (from Table 2) [6]: 1.6 n Moles/10^6 cells/μM
Uptake into V79 cells, composite value [6]: 1.6 n Moles/10^6 cells/μM
uptake by V79 cells (in words) [6]: taken up particulary well

SiPc[OSi(CH3)2 (CH2)4 NHSO2 CH3 ]2 [Compound VIII]
Maximum Effect (% survival) ([3]; 1 μM, at 30 kJ/m^2): 94%
effect on tumor volume / growth (in words) [4]: the doubling of tumor volume was delayed in the animals treated with each of the compounds except PcVIII
Doubling Time of Initial Tumor Volume after PDT [4]: 4 days
induction of apoptosis ([5]; 1 μM at a fluence of 30 kJ/m^2): did not induce apoptosis
Uptake (from Table 2) [6]: 0.2 n Moles/10^6 cells/μM
Uptake into V79 cells, composite value [6]: 0.2 n Moles/10^6 cells/μM
